Test results as given in US12145913B2, “Inhibition of Olig2 activity” (Curtana Pharmaceuticals, Inc., priority 2016, dated 2024).
“And” between values parts separate entries of the source, which are not always exact repeats. Equal entries are not always repeated. Structures can show the parent of a compound that is named as a salt. Where two headings read alike, the source gives them in different places.

Assays:
[1] = tested on: GBM8 human glioblastoma cells; test: GBM8 viability assay (Cell Titer Glo); format: cell-based; settings: 72 h, Table 1, 3 days incubation, luminescence
Procedure, shortened: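 Patient-derived GBM4 and GBM8 neurosphere cells, 4000 per well in EGF/bFGF/heparin-supplemented NeuroCult medium, were exposed to compound (added in 1% DMSO solution) for 3 days at 37° C. Growth was read by CellTiter-Glo luminescence versus DMSO wells, and IC50s came from 4-parameter fits of serial dilutions.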

[2] = tested on: GBM4 human glioblastoma cells; test: GBM4 viability assay (Cell Titer Glo); format: cell-based
Method: Cell culture medium was prepared from a NSA proliferation kit (Neurocult) and NeuroCult supplements (Stemcell Tech Cat. #05751) and treated with 20 μL of 10 μg/mL rh EGF, 10 μL of 10 μg/mL rh bFGF and 10 μL of 0.2% Heparin. In this medium, human glioblastoma cells were cultured in ultra-low attachment tissue culture flasks until 1×10^6 cells ml was achieved (GBM4 and GBM8 are distinct neurosphere cell cultures derived from these human patient tissues). GBM4 and GBM8 cells were dissociated and 10 mL of media containing 4000 human glioblastoma cells per 90 μL were transferred to an ultra-low binding 96-well plate and incubated at 37° C. overnight. On the following day, 10 μL of a 1% DMSO solution of test compound in assay medium was added to wells containing the cell suspension and the mixture incubated at 37° C. for 3 days. At this time, the plate was removed from the incubator and allowed to reach room temperature. After about 30 minutes, 50 μL of Cell Titer Glo solution was added to each well and the plate shaken for 1 minute at low speed. After 10 minutes luminescence was recorded using a Tecan Safire2 reader.
Reduction in luminescence compared to DMSO only control wells was used to determine the percentage inhibition of cell growth. IC50s were calculated using the % inhibition of luminescence for serial dilutions of compounds fitted to a 4-parameter fit within the Prism (San Diego) curve fitting program. Tables 1 (compounds 3-188) and 2 (compounds 190-212) show the GBM4 IC50 and GBM8 IC50 for compounds described herein.

[3] = tested on: Human GBM4 glioblastoma flank tumor; test: Tumor growth inhibition in mouse flank tumor model, GBM4; format: in vivo; settings: NSG mice
Method: (§1) The animals were fed ad libitum water (reverse osmosis, 1 ppm Cl) and NIH 31 Modified and Irradiated Lab Diet® consisting of 18.0% crude protein. 5.0% crude fat, and 5.0% crude fiber. The mice were housed on irradiated Enrich-o'Cobs™ bedding in static microisolators on a 12-hour light cycle at 20-22° C. (68-72° F.) and 40-60% humidity.
(§2) Human GBM4 or GBM8 glioblastoma cell lines were maintained in Complete NeuroCult Proliferation Medium containing 20 ng/mL EGF, 10 ng/mL bFGF and 2 μg/mL Heparin. The cells were cultured in ultra low attachment T75 flask (Corning REF-3814) and the resulting neurospheres were dissociated every 4-6 days using the NeuroCult Chemical Dissociation kit (Stemcell Technologies Cat #05707). Cell cultures were maintained in tissue culture flasks in a humidified incubator at 37° C., in an atmosphere of 5% CO2 and 95% air. Cell samples were collected one passage prior to cell implant and preserved in freezing media.
Cells used for implantation were harvested during log phase growth and resuspended in cold PBS containing in 50% Matrigel™ (BD Biosciences). Tumor growth was initiated on Day 1 by subcutaneous injection of GBM4 cells into the right flank of each mouse with 1×10^7 tumor cells (0.1 mL cell suspension) and tumor growth was monitored in four groups (n=8) beginning on Day 12. Groups for treatment included group 1 (vehicle), group 2 (test Olig2 inhibitor), group 3 (treatment with temozolomide and radiation) and group 4 (test Olig2 inhibitor combined with temozolomide and radiation). The tumors were measured with a caliper in two dimensions to monitor size. Tumor size was calculated using the formula. […] Tumor weight may be estimated with the assumption that 1 mg is equivalent to 1 mm^3 of tumor volume Tumors were measured with a caliper twice weekly for the duration of the study Temozolomide (Merck & Co., Lot No. L046487) was administered orally at doses of 5 mg/kg or 10 mg/Kg). […]
The study endpoint was a tumor volume of 2000 mm^3 or Day 152, whichever came first. […] The time to endpoint (TTE) for each animal was calculated with the following equation: […]

[4] = tested on: Human GBM8 glioblastoma flank tumor; test: Tumor growth inhibition in mouse flank tumor model, GBM8; format: in vivo; settings: NSG mice; for Compound + Temozolomide + radiation (median TTE): combined with temozolomide and radiation; for Compound (median TTE): compound alone
Method: as §1, §2
Cells used for implantation were harvested during log phase growth and resuspended in cold PBS containing in 50% Matrigel™ (BD Biosciences). Tumor growth was initiated on Day 1 by subcutaneous injection of GBM4 cells into the right flank of each mouse with 1×10^7 tumor cells (0.1 mL cell suspension) and tumor growth was monitored in four groups (n=8) beginning on Day 12. Groups for treatment included group 1 (vehicle), group 2 (test Olig2 inhibitor), group 3 (treatment with temozolomide and radiation) and group 4 (test Olig2 inhibitor combined with temozolomide and radiation). The tumors were measured with a caliper in two dimensions to monitor size. Tumor size was calculated using the formula. Tumor Volume (mm^3)=[…]: where w=width and l=length, in mm, of a tumor. Tumor weight may be estimated with the assumption that 1 mg is equivalent to 1 mm^3 of tumor volume Tumors were measured with a caliper twice weekly for the duration of the study Temozolomide (Merck & Co., Lot No. L046487) was administered orally at doses of 5 mg/kg or 10 mg/Kg). Radiation was adminstered with a Faxitron model CP-160 X-ray system. Each animal was immobilized in a live restrainer. Therapy was administered for 1.3 min at 160 KV and 6.0 mA, providing a dose of 1 gray (Gy) for each animal.
The study endpoint was a tumor volume of 2000 mm^3 or Day 152, whichever came first. Each animal was euthanized for tumor progression (TP) when its tumor reached the volume endpoint. The time to endpoint (TTE) for each animal was calculated with the following equation: […]
The data set is comprised of the first observation that exceeded the study endpoint volume and the three consecutive observations that immediately preceded the attainment of the endpoint volume. […] In instances in which the log-transformed calculated TTE preceded the day prior to reaching endpoint or exceeded the day of reaching tumor volume endpoint, a linear interpolation was performed to approximate the TTE. Any animal determined to have died from treatment-related (TR) causes was assigned a TTE value equal to the day of death. […]
Treatment outcome was evaluated from tumor growth delay (TGD), which was defined as the increase in the median TTE for a treatment group compared to the control group: TGD=T−C, expressed in days, or as a percentage of the median TTE of the control group: TGD(%)=T−C/C×100 • T=median TTE for a treatment group, • C=median TTE for the control group.

GBM8 cells, intracranial = test: Survival in orthotopic glioblastoma mouse model, GBM8; format: in vivo; settings: athymic nude mice, oral daily from day 4, percent increase of median versus vehicle
Text: (§3) Patient-derived xenograft samples were used in this study as a more faithful representation of human glioblastoma compared to immortalized cell lines. The maintenance of patient-derived xenografts exclusively by serial passage in mice has been advocated as a means to faithfully preserve the genetic features of the original tumors. Tumor integrity is periodically confirmed by short tandem repeat assessment. These methods were used to obtain cell suspensions of G06 cells for use in vivo. Briefly, short-term cultured cells were injected into the flank of athymic nude mice (Nu/Nu: Envigo). Tumors grown in these mice were harvested and cultured to afford cell suspension for viability studies. Mice with tumors 1-1.5 cm^3 were euthanized using CO2. Tumors were swabbed with Betadine (Carefusion #29906-016) and excised with a sterile scalpel. The tumor sample was placed in a culture plate and broken up with a sterile syringe. […] The pellets were resuspended in Stem Cell Media to a concentration of […] as measured by a hemocytometer.
(§4) G06 or cultured GBM8 cells (3×10^5, 3 μL), were injected intracranially into anesthetized female athymic nude mice (Nu/Nu: Envigo). […] Animal counts and body weight were monitored daily. Survival improvement was measured as a percent increase of the median for drug treatment versus vehicle.

[5] = tested on: G06 patient-derived glioblastoma cells, intracranial; test: Survival in orthotopic glioblastoma mouse model, G06; format: in vivo; settings: athymic nude mice, oral daily from day 4, percent increase of median versus vehicle
Text: as §3, §4

[6] = Solubility of compound 174 in DI water; format: physicochemical; settings: thermodynamic from solid, 2 determinations, read-out: Estimated solubility
Method: Into a 1 dram vial was added a sample of compound 174. DI water was added until the solid was fully dissolved. Solubility was estimated from the amount of solid per mL of water added. Estimated solubility ˜30 mg/mL (2 determinations).

[7] = Table 3, GBM4 cells, read-out: GBM4 IC50 (Cytotoxicity)
[8] = temozolomide orally plus radiation 1 Gy
[9] = 72 h, Table 1, 3 days incubation, luminescence, read-out: GBM4 IC50

CC(=O)NCCNc1cc(C)nc(NC(=O)Nc2ccc3ccccc3c2)n1 [Compound 35, N-(2-((6-methyl-2-(3-(naphthalen-2-yl)ureido)pyrimidin-4-yl)amino)ethyl)acetamide] showed an IC50 [1] of less than 500 nM and an IC50 [2, 7] of 140 nM.
In the case of Cn1nnc2c(C(N)=O)ncn2c1=O [Temozolomide, reference compound], the “Temozolomide + radiation (median TTE)” value [3, 8] is reported as 116.3 days and the “Temozolomide + radiation (median TTE)” value [4, 8] is reported as 86.2 days and 78 days.
Molecule Cc1cc(NCCNS(C)(=O)=O)nc(NC(=O)Nc2ccc3ccccc3c2)n1 [Compound 36, N-(2-((6-methyl-2-(3-(naphthalen-2-yl)ureido)pyrimidin-4-yl)amino)ethyl)methanesulfonamide] has an IC50 [1] of less than 500 nM and an IC50 [2, 7] of 40 nM.
With Cc1cc(N)nc(NC(=O)Nc2ccc(OC(F)(F)F)cc2)n1 [Compound 176, 1-(4-amino-6-methylpyrimidin-2-yl)-3-(4-(trifluoromethoxy)-phenyl)urea] the IC50 [1] was less than 500 nM, the “GBM8: Estimated Median Survival Benefit (%)” value (GBM8 cells, intracranial) was 72% and the “Compound + Temozolomide + radiation (median TTE)” value [4] was 127.9 days. For the same molecule, the “Compound (median TTE)” value [4] was 56.4 days and the “G06: Estimated Median Survival Benefit (%)” value [5] was 46%.
For CCNc1cc(C)nc(NC(=O)Nc2ccc3ccccc3c2)n1 [Compound 19], the IC50 [1] was less than 500 nM and the IC50 [2, 7] was 60 nM.
For Cc1cc(NCCCN(C)C)nc(NC(=O)Nc2ccc(Cl)c(Cl)c2)n1 [Compound 174, 1-(3,4-dichlorophenyl)-3-(4-((3-(dimethylamino)propyl)amino)-6-methylpyrimidin-2-yl)urea dimethanesulfonic acid salt], the IC50 [1] was less than 500 nM, the “Compound + Temozolomide + radiation (median TTE)” value ([3]; combined with temozolomide and radiation) was 152.0 days and the “Compound (median TTE)” value ([3]; compound alone, endpoint 2000 mm^3 or Day 152) was 73.0 days. For the same molecule, the “GBM8: Estimated Median Survival Benefit (%)” value (GBM8 cells, intracranial) was 48%, the “Compound + Temozolomide + radiation (median TTE)” value [4] was greater than 140.0 days and the “Compound (median TTE)” value [4] was 61.3 days. The solubility [6] was roughly 30 mg/mL, the “G06: Estimated Median Survival Benefit (%)” value [5] was 54% and the IC50 [2, 7] was 240 nM.
In the case of Cc1cc(NCCCN)nc(NC(=O)Nc2ccc3ccccc3c2)n1 [Compound 4, 1-(4-((3-aminopropyl)amino)-6-methylpyrimidin-2-yl)-3-(naphthalen-2-yl)urea], the IC50 [1] is reported as less than 500 nM and the IC50 [2, 9] is reported as less than 500 nM.
Molecule Cc1cc(NCCC(=O)N(C)C)nc(NC(=O)Nc2ccc3cnccc3c2)n1 [Compound 76, 3-((2-(3-(isoquinolin-6-yl)ureido)-6-methylpyrimidin-4-yl)amino)-N,N-dimethylpropanamide] has an IC50 [1] of 500 to 5000 nM.
Molecule Cc1cc(NCCCN(C)C)nc(NC(=O)Nc2ccc3ccccc3c2)n1 [Compound 3, 1-(4-((3-(dimethylamino)propyl)amino)-6-methylpyrimidin-2-yl)-3-(naphthalen-2-yl)urea] has an IC50 [1] of less than 500 nM and an IC50 [2, 9] of less than 500 nM.
Work on CNc1cc(C)nc(NC(=O)Nc2ccc3ccccc3c2)n1 [Compound 20] yielded an IC50 [1] of less than 500 nM.
Molecule Cc1cc(NCCN(C)C)nc(NC(=O)Nc2ccc3ccncc3c2)n1 [Compound 115, 1-(4-((2-(dimethylamino)ethyl)amino)-6-methylpyrimidin-2-yl)-3-(isoquinolin-7-yl)urea] has an IC50 [1] of 500 to 5000 nM.
With CNc1cc(C)nc(NC(=O)Nc2ccc3cnccc3c2)n1 [Compound 55] the IC50 [1] was less than 500 nM.
Cc1cc(NCCN)nc(NC(=O)Nc2ccc3ccccc3n2)n1 [Compound 98, 1-(4-((2-aminoethyl)amino)-6-methylpyrimidin-2-yl)-3-(quinolin-2-yl)urea] gave an IC50 [1] of 500 to 5000 nM.
Cc1cc(NCCCN(C)C)nc(NC(=O)Nc2cccc(Oc3ccccc3)c2)n1 [Compound 128, 1-(4-((3-(dimethylamino)propyl)amino)-6-methylpyrimidin-2-yl)-3-(3-phenoxyphenyl)urea] gave an IC50 [1] of 500 to 5000 nM.
With CC(=O)NCCCNc1cc(C)nc(NC(=O)Nc2ccc(OC(C)C)cc2)n1 [Compound 142, N-(3-((2-(3-(4-isopropoxyphenyl)ureido)-6-methylpyrimidin-4-yl)amino)propyl)acetamide] the IC50 [1] was less than 500 nM.
